Reference: patent US4444690A, “Technetium chelates” (priority 1982, dated 1984)
Where “and” joins values, the source holds several entries; their conditions need not be identical. Equal values may be shown once. Read-outs that look alike come from different tables or passages of the source.

Columns and labels:
[1] = rat, in vivo, iv, 1.5 h; cited from earlier work
plasma proteins = conditions: cited from earlier work
[2] = mouse, in vivo, 5 min; cited from earlier work
[3] = rat, in vivo; cited from earlier work
renal tubular transport [4] = conditions: mouse, in vivo
Procedure: (§1) A dose of 50 mg/kg of probenicid was given 10 minutes prior to injection of radiochemicals. OIH was injected simultaneously.
(§2) *Values are mean and S.E.M. percent injected dose at 10 min. post

[5] = human, in vivo; cited from earlier work
[6] = cited from earlier work
[7] = Plasma protein binding, ultrafiltration; format: in vitro ADME; conditions: plasma, duplicate determinations, read-out: binding to plasma proteins (converted)
Procedure: Studies of protein binding were carried out in plasma using an ultrafiltration method described at J.Nucl.Med. 22, 258-263, 1981.

[8] = Blood disappearance rates in rats (FIG. 3); format: in vivo, male Sprague-Dawley rats; conditions: rat, in vivo
Text: These determinations were made in male Sprague-Dawley rats.

renal tubular transport [9] = test: Tubular transport inhibition study with probenicid (Table 2); conditions: mice; for Blood / Intestines / Kidneys / Liver / Urine (renal excretion): 10 min post injection; for Urine (renal excretion): 10 min
Procedure: as §1, §2

[10] = Organ biodistribution time course of Tc-CO2-DADS components in mice (Table 1); format: in vivo, Hal Cr female albino mice; conditions: mouse, in vivo
Procedure: Organ biodistribution and acute toxicity studies were carried out in mice, blood disappearance and bile appearance rates were determined by sampling of bood or bile in rats, and renal excretion rates of the two Tc-2,3-bis(mercaptoacetamido)propanoic acid components, Tc-DTPA, and OIH were determined in rabbits because of greater ease of urine sampling. The HPLC-purified Tc-2,3-bis(mercaptoacetamido)propanoate components were used directly except for dilution as necessary. In general HPLC collected volumes were 1 to 1.5 ml and were not diluted for rabbit studies, were diluted 2- to 10-fold for rat studies and were diluted about 20-fold for mouse studies. In most cases determinations were made with simultaneous administration of OIH.
The time course of organ distribution was determined in groups of six Hal Cr female albino mice. They were injected with 0.10 ml (0.5 uCi) of the preparation. For comparison purposes, 0.2 uCi OIH was added to each injection. The mice were placed in metabolic cages for the collection of excreted urine. At indicated intervals after injection, the urethra was ligated and the mice killed with chloroform vapor. The organs were removed and counted in a dual channel counter with correction for I-131 crossover into the Tc-99m channel.

[11] = probenicid treated (50 mg/kg, 10 min prior)

## 1,2-Bis(mercaptoacetamido)ethane [Tc-DADS]
[1]
  biliary excretion of radioactivity in the absence of renal function: 19%
Plasma proteins
  protein binding value: 95%
[2]
  Kidneys: 12.6 % of the dose
  in the urine: 28%
[3]
  time at which radioactivity remaining in the blood was 2%: 68 min
  time at which radioactivity remaining in the blood was 5%: 19 min
Renal tubular transport [4]
  decrease in renal excretion with probenicid, in words: decrease in renal excretion of Tc-DADS to a much greater extent than OIH
Renal tubular transport [4]; 10 min
  Blood: 1.85 percent injected dose
  Intestines: 4.69 percent injected dose
  Kidneys: 4.25 percent injected dose
  Liver: 2.24 percent injected dose
[5]
  distribution of radioactivity: confined radioactivity to the vascular system rather than the extracellular space as with Tc-DTPA
  effect of decreased renal function on renal excretion: decreased renal function reduced renal excretion of Tc-DADS to a greater extent than OIH
  hepatobiliary excretion: hepatobiliary excretion became significant
[6]; in vivo
  renal retention: no evidence of significant renal retention

## O=C(O)CNC(=O)c1ccccc1[131I] [OIH, I-131 o-iodohippurate]
[7]; 10 minutes
  fraction unbound at 10 min: 0.36
[7]; 30 minutes
  fraction unbound at 0.5 h: 0.44
[8]
  blood disappearance in words: most rapid disappearance through 75 minutes
[6]; renal
  extraction efficiency: about 67%
Renal tubular transport [9]; control
  Blood: 4.58 percent injected dose
  Intestines: 1.12 percent injected dose
  Kidneys: 2.83 percent injected dose
  Liver: 1.31 percent injected dose
  Urine (renal excretion): 64.94 percent injected dose and 65 percent injected dose
Renal tubular transport [9]; 10 minutes
  decrease of renal excretion by probenicid treatment: 20%
Renal tubular transport [9]; [11]
  Blood: 7.49 percent injected dose
  Intestines: 2.18 percent injected dose
  Kidneys: 3.79 percent injected dose
  Liver: 2.68 percent injected dose
  Urine (renal excretion): 52.62 percent injected dose and 52 percent injected dose
[10]; 5 min
  OIH Urine: 42.02 percent injected dose
[10]; 10 min
  OIH Urine: 64.94 percent injected dose
[10]; 0.25 h
  OIH Urine: 78.24 percent injected dose
[10]; 2 h
  OIH Urine: 82.43 percent injected dose
